pIC50: −log10 of the molar value. Inconclusive results are not listed.
Target: Virion infectivity factor (Human immunodeficiency virus type 1 group M subtype B (isolate BH10)) + Virion infectivity factor (Human immunodeficiency virus type 1 group M subtype B (isolate BRU/LAI)) + Virion infectivity factor (Human immunodeficiency virus type 1 group M subtype B (isolate PCV12)) + Virion infectivity factor (Human immunodeficiency virus type 1 group M subtype B (isolate HXB2)) + DNA dC->dU-editing enzyme APOBEC-3G (Homo sapiens) (UniProt P69720+P69721+P69722+P69723+Q9HC16)
Test: inhibitors of Vif binding to APOBEC3G peptide, primary screen, biochemical, TR-FRET, GST-Vif 1-94, biotin-A3G peptide, dose response retest (AID 1117319);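 also: Vif residues 1-94 fused to GST binding biotinylated APOBEC3G peptide 110-148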

Row | SMILES | pIC50
1 | O=C(NCc1ccc2c(c1)OCO2)c1cc2ncc(Br)cn2n1 | 4.47
2 | O=c1cc2oc3cc(O)c(O)cc3c(-c3ccccc3O)c-2cc1O | 6.08
3 | CN1C(=O)/C(=C/C=C/c2ccco2)C(=O)NC1=S | 4.87
4 | Cc1ccc(S(=O)(=O)Cn2nnnc2C(CC(C)C)N2CCN(C)CC2)cc1 (stereo unspecified) | 5.01
5 | COc1cc(-c2nnc(SCc3cc(=O)oc4cc(O)c(O)cc34)o2)cc(OC)c1OC | 5.08
6 | O=C(Cc1ccccc1)NC(Nc1ccccc1)C(Cl)(Cl)Cl (stereo unspecified) | 4.55
7 | COC/C=C/C1=CC2=CC(=O)C(C)(OC(=O)c3ccco3)C(=O)C2=CO1 (stereo unspecified) | 5.82
8 | O=C(NCC1CCCO1)c1cc(-c2ccco2)nc2ccccc12 (stereo unspecified) | 4.84
9 | CCn1c(C)nc2cc(C(=O)N/N=C/c3ccc(O)c(O)c3O)ccc21 | 6.28
10 | Cc1c(Br)c(O)c(Br)c2sc(=O)oc12 | 5.75
11 | Nc1ccc(N2CCN(CCCCN3C(=O)C4CCCN4C3=O)CC2)cc1 (stereo unspecified) | 5.87
12 | Nc1cccc2cc(S(=O)(=O)O)ccc12 | 4.46
13 | CC1CCCCC1NC(=O)COC(=O)c1c2c(nc3ccccc13)/C(=C/c1ccco1)CC2 (stereo unspecified) | 5.88
14 | CCOC(=O)c1cc([N+](=O)[O-])cc([N+](=O)[O-])c1Sc1ncnc2nc[nH]c12 | 4.16
15 | O=C1CCC/C1=C/Nc1ccc2c(c1)OCO2 | 5.68
16 | CC1=CC(C)(C)Nc2ccc(OC(=O)c3cccnc3)cc21 | 4.52
17 | CSc1nc(NCCOCCO)c2sc3nc(-c4ccco4)c4c(c3c2n1)CCC4 | 5.85
18 | CN(C)[C@@H]1C(=O)C(C(=O)NCN2CCCC2)=C(O)[C@@]2(O)C(=O)C3=C(O)c4c(O)cccc4[C@@](C)(O)C3CC12 (stereo partly specified) | 6.48
19 | O=C(O)C1OC(Oc2c(-c3ccc(O)c(O)c3)oc3cc(O)cc(O)c3c2=O)C(O)C(O)C1O (stereo unspecified) | 5.57
20 | NC(CO)C(=O)NNCc1ccc(O)c(O)c1O (stereo unspecified) | 5.83
21 | CSc1nnc(-c2ccco2)c(-c2ccco2)n1 | 5.83
22 | C=CCn1c(C)cc(-c2csc(N)n2)c1C | 5.91
23 | O=C(Nc1ccc2nc(-c3ccco3)c(-c3ccco3)nc2c1)NC1CC1 | 6.52

Row | SMILES | pIC50
24 | O=C1C=CC(=O)c2c(O)c(CO)c(CO)c(O)c21 | 6.33
25 | Oc1ccc(N=Cc2sc3ccccc3c2Cl)cc1 | 5.51
26 | N#C/C(=C/c1ccc(Br)o1)C(N)=S | 5.41
27 | CCOC(=O)c1sc2nc(CC(=O)OC)nc(NCc3ccco3)c2c1C | 5.61
28 | O=c1cc(-c2ccc(O)cc2)oc2c(O)c(O)c(O)c(O)c12 | 4.65
29 | CCOC(=O)C1CCCN(c2ncnc3c2cnn3-c2ccc(Cl)cc2)C1 (stereo unspecified) | 4.44
30 | O=C(NCCCO)c1ccc2nc(-c3ccco3)c(-c3ccco3)nc2c1 | 6.14
31 | O=C(/C=C/c1cccs1)N1CCN(c2ccc(O)cc2)CC1 | 4.68
32 | COc1ccc(S(=O)(=O)Nc2cc(SCC(=O)O)c(O)c3ccccc23)cc1 | 4.66
33 | O=C(O)C1Nc2c(O)cccc2C2C=CCC12 (stereo unspecified) | 6.60
34 | Nc1ccc(Oc2ncccn2)cc1 | 4.61
35 | Oc1cc2c(cc1O)C1c3ccc(O)c(O)c3OCC1(O)C2 (stereo unspecified) | 6.34
36 | COc1cccc(-c2nn(C)c3sc(C(=O)Nc4ccc5c(c4)OCCO5)cc23)c1 | 4.29
37 | COc1ccc2c(c1)C(=O)c1ccccc1CO2 | 4.28
38 | CCN(CC)c1ccc(NC2=C(Cl)C(=O)c3ccccc3C2=O)cc1 | 5.42
39 | CN1C(=O)/C(=C/c2ccco2)SC1=Nc1cccc(C(=O)O)c1 | 4.72
40 | CN(Cc1cnc2nc(N)nc(N)c2n1)c1ccc(C(=O)NC(CCC(=O)O)C(=O)O)cc1 (stereo unspecified) | 4.31
41 | CCOC(=O)C1=C(C)N=C2SC(C(=O)OC)=CC(=O)N2C1c1cc(OC)c(OC)c(OC)c1 (stereo unspecified) | 4.96
42 | Cc1cc(Cl)cc2c1NC(=O)[C@]21[C@@H]2C(=O)N(Cc3ccccc3)C(=O)[C@@H]2[C@@H]2CCCN21 | 4.42
43 | CCOC(=O)c1c(NC(=O)c2cccs2)sc(C)c1C | 4.48
44 | Cc1ccc(SCCN2C(=O)NC(C)(C)C2=O)cc1 | 5.14
45 | O=C(CCc1c[nH]c2ccccc12)N1CCN(c2ccc(O)cc2)CC1 | 4.88
46 | COc1ccc2c(c1)O[C@@H](c1ccc3c(c1)OCO3)[C@H](OC(=O)Nc1cc(OC)c(OC)c(OC)c1)C2=O | 4.18

Source: PubChem BioAssay AID1117319 (Southern Research Institute, 2015)
